Assay results from patent US9718800B2, “Chromenone derivatives” (AstraZeneca AB, priority 2009, dated 2017).

Target: PI3Kβ (Homo sapiens (Human), UniProt P42338)
Assay: In vitro enzyme inhibition assay (Kinase Glo based enzyme activity assay)
Type: biochemical
Conditions: Test (a), Table A
Description: (a) In Vitro Enzyme Inhibition Assay
The inhibition of PI3Kβ, PI3Kα, PI3Kγ and PI3Kδ was evaluated in a Kinase Glo based enzyme activity assay using human recombinant enzymes. The assay measures depletion of ATP after incubation with enzyme, PIP2 and ATP plus compound. ATP at the end of the reaction is detected by addition of Kinase Glo reagent, in this the Ultra Glo™ luciferase (Promega) uses the ATP as a substrate to catalyze the mono-oxygenation of luciferin and the generation of light. A direct relationship exists between the luminescence measured with the Kinase-Glo Plus Reagent and the amount of ATP remaining in a completed kinase reaction and luminescence is inversely related to kinase activity.
Compounds in 100% DMSO were added to assay plates by acoustic dispensing. PI3Kβ was added in a Tris buffer (50 mM Tris pH7.4, 0.05% CHAPS, 2.1 mM DTT, and 10 mM MgCl2) and allowed to preincubate with compound for 20 minutes prior to addition of substrate solution containing PIP2 and ATP. The enzyme reaction was stopped after 80 minutes by the addition of Kinase Glo detection solution. Plates were left for 30 minutes at room temperature then read on a Pherastar Instrument (Luminescence ATP 384 program) setting gain on max well. […]
IC50 values were calculated using a log curve fitting to a non-linear regression package, fitting raw data to inhibitor concentration.

Chain of PI3Kβ (P42338 whole entry): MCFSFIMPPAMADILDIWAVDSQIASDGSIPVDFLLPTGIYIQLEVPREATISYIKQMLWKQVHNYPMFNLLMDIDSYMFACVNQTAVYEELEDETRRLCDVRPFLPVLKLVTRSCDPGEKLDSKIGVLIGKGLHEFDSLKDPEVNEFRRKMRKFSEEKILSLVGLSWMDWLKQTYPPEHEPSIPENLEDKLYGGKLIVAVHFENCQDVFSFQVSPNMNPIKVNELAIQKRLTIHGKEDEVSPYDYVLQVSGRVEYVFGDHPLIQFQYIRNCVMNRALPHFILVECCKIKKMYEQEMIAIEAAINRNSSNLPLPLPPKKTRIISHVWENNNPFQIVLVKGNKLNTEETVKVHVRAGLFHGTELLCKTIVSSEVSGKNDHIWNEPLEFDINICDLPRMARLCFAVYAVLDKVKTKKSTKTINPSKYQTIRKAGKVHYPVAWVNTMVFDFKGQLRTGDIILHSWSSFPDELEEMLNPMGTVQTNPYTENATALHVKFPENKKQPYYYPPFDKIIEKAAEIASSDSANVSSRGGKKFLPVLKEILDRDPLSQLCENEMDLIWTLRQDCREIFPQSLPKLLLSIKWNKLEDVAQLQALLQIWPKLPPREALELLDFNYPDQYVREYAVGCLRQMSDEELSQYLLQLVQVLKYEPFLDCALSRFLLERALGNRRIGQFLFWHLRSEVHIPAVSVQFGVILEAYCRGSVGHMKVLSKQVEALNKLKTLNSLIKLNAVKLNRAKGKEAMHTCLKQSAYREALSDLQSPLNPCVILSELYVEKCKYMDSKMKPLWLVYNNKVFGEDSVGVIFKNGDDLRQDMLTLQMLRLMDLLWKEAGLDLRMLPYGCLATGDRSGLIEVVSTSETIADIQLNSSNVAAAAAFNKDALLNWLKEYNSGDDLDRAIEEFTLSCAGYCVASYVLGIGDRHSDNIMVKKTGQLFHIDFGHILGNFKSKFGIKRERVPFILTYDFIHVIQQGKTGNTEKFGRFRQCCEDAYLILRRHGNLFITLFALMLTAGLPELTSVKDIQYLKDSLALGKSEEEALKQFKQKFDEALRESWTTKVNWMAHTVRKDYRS
Chain of PI3Kβ (P27986 whole entry partner): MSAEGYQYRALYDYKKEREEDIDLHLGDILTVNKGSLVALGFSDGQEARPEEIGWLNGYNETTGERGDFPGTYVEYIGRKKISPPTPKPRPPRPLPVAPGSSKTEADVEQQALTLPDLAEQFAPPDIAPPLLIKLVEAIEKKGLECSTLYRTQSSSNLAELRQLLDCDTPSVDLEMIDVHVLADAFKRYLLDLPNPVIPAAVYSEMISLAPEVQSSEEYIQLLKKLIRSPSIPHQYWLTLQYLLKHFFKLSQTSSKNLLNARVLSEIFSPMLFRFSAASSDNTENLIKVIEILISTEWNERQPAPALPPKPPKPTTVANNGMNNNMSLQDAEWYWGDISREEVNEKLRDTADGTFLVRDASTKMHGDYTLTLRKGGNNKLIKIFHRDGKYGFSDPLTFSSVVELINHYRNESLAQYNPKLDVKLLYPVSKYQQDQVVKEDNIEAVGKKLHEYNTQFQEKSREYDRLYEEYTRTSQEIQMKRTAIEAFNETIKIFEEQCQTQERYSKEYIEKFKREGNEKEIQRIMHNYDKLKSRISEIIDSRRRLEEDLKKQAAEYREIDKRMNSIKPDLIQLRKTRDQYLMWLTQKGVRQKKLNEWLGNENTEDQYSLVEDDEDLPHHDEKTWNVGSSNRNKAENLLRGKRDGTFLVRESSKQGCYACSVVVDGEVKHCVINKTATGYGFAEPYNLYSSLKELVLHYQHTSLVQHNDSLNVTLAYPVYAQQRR

Work on `CC(c1cc(C(=O)NCCN(C)C)cc2c(=O)cc(N3CCOCC3)oc12)N(C)c1ccc(F)c(F)c1` (stereo not shown) [Example 3.01, 8-(1-((3,4-difluorophenyl)(methyl)amino)ethyl)-N-(2-(dimethylamino)ethyl)-2-morpholino-4-oxo-4H-chromene-6-carboxamide] yielded an IC50 of 6 nM.
